Counter-ions that a name gives are not always drawn.
| melting point [°C] | SMILES |
| --- | --- |
| 220 | CC(C)(C)NS(=O)(=O)c1ccc(-n2[nH]cc(Cc3cccnc3)c2=O)nc1 [Compound 98A, N-tert-butyl-6-[5-oxo-4-(pyridin-3-ylmethyl)-2,5-dihydro-1H-pyrazol-1-yl]pyridine-3-sulfonamide] |
| 146 | CCN(c1ccccc1)S(=O)(=O)c1ccc(-n2[nH]c(C)c(Cc3ccccc3C(=O)OC)c2=O)nc1 [Compound 116] |
| 110 | Cc1[nH]n(-c2ccccn2)c(=O)c1Cc1ccccc1 [Compound 182] |
| 156 | COC(=O)[C@H]1CCC[C@H]1N(C)S(=O)(=O)c1ccc(-n2[nH]cc(Cc3cccnc3)c2=O)nc1 (as salt: HCl) [Compound 131] |
| 157 | Cc1[nH]n(-c2ccccn2)c(=O)c1Cc1ccccc1C#N [Compound 172] |
| 174 | CCN(c1ccccc1)S(=O)(=O)c1ccc(-n2[nH]c(C)c(Cc3cccc(OC)n3)c2=O)nc1 [Compound 78] |
| 165 | COc1ccc(Cc2c(C)[nH]n(-c3ccc(S(=O)(=O)N(C)C(C)(C)C)cn3)c2=O)nc1 [Compound 160] |
| 80 | Cc1[nH]n(-c2ccccn2)c(=O)c1Cc1cccnc1 [Compound 183] |
| 174 | O=c1c(Cc2ccccc2)c[nH]n1-c1ccc(S(=O)(=O)N(CC(O)CO)c2ccccc2)cn1 (centres unmarked) [Compound 143, 6-(4-benzyl-5-oxo-2,5-dihydro-1H-pyrazol-1-yl)-N-(2,3-dihydroxypropyl)-N-phenylpyridine-3-sulfonamide] |
| 108 | CN([C@@H]1CC[C@H](CO)C1)S(=O)(=O)c1ccc(-n2[nH]cc(Cc3ccccc3)c2=O)nc1 [Compound 138, 6-(4-benzyl-5-oxo-2,5-dihydro-1H-pyrazol-1-yl)-N-[(1R,3S)-3-(hydroxymethyl)cyclopentyl]-N-methylpyridine-3-sulfonamide] |
| 182 | CCN(c1ccccc1)S(=O)(=O)c1ccc(-n2[nH]c(C)c(Cc3ccc(N(C)C)cc3)c2=O)nc1 [Compound 50] |
| 128 | CCN(c1ccccc1)S(=O)(=O)c1ccc(-n2[nH]c(C)c(Cc3cccnc3)c2=O)nc1 (as salt: hydrochloride) [Compound 43] |
| 126 | CCC(C)(C)NS(=O)(=O)c1ccc(-n2[nH]cc(Cc3cccnc3)c2=O)nc1 (as salt: HCl) [Compound 137] |
| 120 | CCN(c1ccccc1)S(=O)(=O)c1ccc(-n2[nH]c(C)c(Cc3ccc(C#N)nc3)c2=O)nc1 [Compound 103] |
| 138 | CCN(c1ccccc1)S(=O)(=O)c1ccc(-n2[nH]c(C)c(Cc3cncc(OC)c3)c2=O)nc1 [Compound 86] |
| 154 | Cc1[nH]n(-c2ccc(S(=O)(=O)Nc3ccccc3)cn2)c(=O)c1Cc1cccnc1 (as salt: HCl) [Compound 90] |
| 80 | CN(C1CCCC1)S(=O)(=O)c1ccc(-n2[nH]cc(C(CC(=O)NCC(F)(F)F)c3ccccc3)c2=O)nc1 (centres unmarked) [Compound 146, 3-(2-{5-[cyclopentyl(methyl)sulfamoyl]pyridin-2-yl}-3-oxo-2,3-dihydro-1H-pyrazol-4-yl)-3-phenyl-N-(2,2,2-trifluoroethyl)propanamide] |
| 212 | Cc1[nH]n(-c2ccc(S(=O)(=O)N(C)C)cn2)c(=O)c1Cc1cccnc1 [Compound 66, N,N-dimethyl-6-[3-methyl-5-oxo-4-(pyridin-3-ylmethyl)-2,5-dihydro-1H-pyrazol-1-yl]pyridine-3-sulfonamide] |
| 162 | CCC(C)(C)N(C)S(=O)(=O)c1ccc(-n2[nH]cc(Cc3cccnc3)c2=O)nc1 [Compound 145] |
| 230 | CN(C)CCCN(C1CCCC1)S(=O)(=O)c1ccc(-n2[nH]cc(Cc3ccccc3)c2=O)nc1 (as salt: HCl) [Compound 123, 6-(4-benzyl-5-oxo-2,5-dihydro-1H-pyrazol-1-yl)-N-cyclopentyl-N-[3-(dimethylamino)propyl]pyridine-3-sulfonamide hydrochloride] |
| 144 | Cc1[nH]n(-c2ccccn2)c(=O)c1Cc1ccc(S(C)(=O)=O)cc1 [Compound 180] |
| 186 | CN(C(C)(C)C)S(=O)(=O)c1ccc(-n2[nH]cc(Cc3ccccc3)c2=O)nc1 [Compound 100] |
| 132 | Cc1[nH]n(-c2ccccn2)c(=O)c1Cc1cccc(N(C)C)c1 (as salt: HCl) [Compound 190] |
| 162 | Cc1[nH]n(-c2ccccn2)c(=O)c1Cc1ccncc1 [Compound 175] |
| 170 | CCN(c1ccccc1)S(=O)(=O)c1ccc(-n2[nH]cc(CC3CCCC3)c2=O)nc1 [Compound 134] |
| 176 | O=c1c(Cc2ccccc2)c[nH]n1-c1ccc(S(=O)(=O)N[C@H]2CCC[C@@H]2O)cn1 [Compound 149] |
| 142 | CCN(c1ccccc1)S(=O)(=O)c1ccc(-n2[nH]cc(Cc3cccnc3)c2=O)nc1 (as salt: HCl) [Compound 99] |
| 156 | CCOC(=O)Cc1[nH]n(-c2ccc(S(=O)(=O)N(CC)c3ccccc3)cn2)c(=O)c1Cc1ccccc1 [Compound 106, ethyl (4-benzyl-1-{5-[ethyl(phenyl)sulfamoyl]pyridin-2-yl}-5-oxo-2,5-dihydro-1H-pyrazol-3-yl)acetate] |
| 110 | Cc1[nH]n(-c2ccccn2)c(=O)c1Cc1ccc(N(C)C)cc1 [Compound 189] |
